Test results published in US4693884A, “Technetium-99m triphosphonates and tetraphosphonates for the scintigraphic visualization of res-containing organs and lymph vessels, and a process for their preparation” (Hoechst Aktiengesellschaft, priority 1982, dated 1987).

Assays:
[1] = Accumulation of phosphoric acid derivatives investigated as technetium-99m diagnostic agents (bone, liver, RES); settings: in vivo
Excerpt: It is possible to use phosphoric acid derivatives, particularly organic phosphonic acid derivatives, for bone scintigraphy. Many compounds have been investigated in the search for derivatives suitable as a technetium-99m diagnostic agent for bone.

[2] = Example 7: change in activity over the abdominal cavity followed with gamma camera (ROI technique); assay type: in vivo, dog (beagle); settings: ear vein
Experimental: (§1) A labeling unit prepared as in Example 6 is made ready for injection with 5 ml of physiologic saline containing 10 mCi of ^99m Tc-pertechnetate. 1 ml of this solution is injected into the ear vein of a dog (beagle) weighing 18 kg, and the change in activity with time over the abdominal cavity is followed using a gamma camera by the ROI technique. It emerges that the uptake of activity by the liver is complete after about 10 min. The lung and kidneys are not imaged.

[3] = Comparison of 99mTc TPB, 99mTc PTP and 99mTc phytate after intravenous injection to dogs; assay type: in vivo; settings: intravenous, dogs
[4] = Example 7: elimination from the blood and renal excretion; assay type: in vivo, dog (beagle)
Experimental: as §1
The elimination from the blood and the renal excretion are also determined on the same animal. […] About 2.3% of the administered activity is excreted with the urine within the first 8 hours.

[5] = Organ distribution of 99mTc-labeled substances in rats 30 minutes after injection as a function of the amount of substance administered; assay type: in vivo; settings: for Blood/ml / Kidneys / Liver / Lung / Remainder of body / Spleen / Thyroid / tissue uptake at 0.5 h: 30 min after injection, n = 3; for tissue uptake at 0.5 h: rat, femur, iv, 0.05 mg
Experimental: Assuming that 2-20 mg of TPB, ETP, PTP or phytate are administered to humans, and assuming that the weight of human is 80 kg, this corresponds to an amount administered of 25-250 μg/kg of body weight. Calculating on the basis of the body weight of rats weighing 200 g, then administration of 5-50 μg of TPB, ETP, PTP or phytate per rat exactly reflects the relationships.
Organ distribution of ^99m Tc TPB, ^99m TC ETP and ^99m Tc
phytate in rats (n = 3) 30
minutes after injection as a function of the amount of substance
(all data as a percentage of the amount of activity administered)

[6] = Example 6: distribution of activity over the organs in rats, PTP; assay type: in vivo, Sprague-Dawley rats; settings: 30 min after injection; femoral vein; mean, n=6
Experimental: 3.5 g of 1,1,3,3-propanetetraphosphonic acid (PTP) are dissolved in 250 ml of double-distilled water, and the solution is adjusted to pH 6 with 1N NaOH. 210 mg of SnCl2.2H2 O, which are dissolved in 4.2 ml of 0.2N HCl, are added to this solution, and the pH is again adjusted to 6. The mixture is made up to 350 ml and individual 1 ml portions are prepared. (All the operations up to preparation of the individual portions are carried out under protective N2 gas.) The contents are frozen and freeze-dried. One unit contains 10 mg of PTP and 0.6 mg of SnCl2.2H2 O.
After storing for some weeks, the lyophilizate is dissolved in 10 ml of physiologic saline which contains 2 mCi of ^99m Tc-pertechnetate. After 30 min, Sprague-Dawley rats (n=6) weighing about 200 g each receive 0.1 ml of this solution injected into the femoral vein. The animals are sacrificed with ether 30 min after injection, and the distribution of the activity over the organs is determined. The mean figures below result (as percentage of the dose administered): […]

[7] = second amount column (printed 50 μg)
[8] = third amount column (printed 50 μg)

O=P(O)(O)C(CC(P(=O)(O)O)P(=O)(O)O)P(=O)(O)O [PTP, propane-1,1,3,3-tetraphosphonic acid]
accumulation in bone [1]: virtually not at all | accumulation in the liver [1]: very preferentially accumulated in the liver | time at which uptake of activity by the liver is complete [2]: about 10 min | excretion of activity with the urine ([3]; 30 min after injection): 0.05 % of the test dose | excretion of activity with the urine, compared with phytate [3]: markedly less | decrease in activity via the liver after accumulation in the liver is complete ([3]; compared with phytate): slower | clearance from the blood, half-life t1 ([4]; ear vein, first phase): 3.25 min | share of phase t1 in clearance from the blood ([4]; ear vein, first phase): 97% | clearance from the blood, half-life t2 ([4]; ear vein, second phase): 20.3 min | share of phase t2 in clearance from the blood ([4]; ear vein, second phase): 2.4% | clearance from the blood, half-life t3 ([4]; ear vein, third phase): 500 min | share of phase t3 in clearance from the blood ([4]; ear vein, third phase): 0.6% | administered activity excreted with the urine ([4]; within the first 8 hours): About 2.3 % of the administered activity | Blood/ml ([5]; (50 μg)): 0.055 percentage of the amount of ac | Kidneys ([5]; (50 μg)): 0.16 percentage of the amount of activity administered | Liver ([5]; (50 μg)): 91.8 percentage of the amount of activity administered | Lung ([5]; (50 μg)): 0.30 percentage of the amount of activity administered | Remainder of body ([5]; (50 μg)): 9.3 percentage of the amount of activity administered | Spleen ([5]; (50 μg)): 1.31 percentage of the amount of activity administered | Thyroid ([5]; (50 μg)): 0.05 percentage of the amount of activity administered | Blood/ml [5, 7]: 0.11 percentage of the amount of ac | Kidneys [5, 7]: 0.37 percentage of the amount of activity administered | Liver [5, 7]: 84.2 percentage of the amount of activity administered | Lung [5, 7]: 0.45 percentage of the amount of activity administered | Remainder of body [5, 7]: 16.0 percentage of the amount of activity administered | Spleen [5, 7]: 1.23 percentage of the amount of activity administered | Thyroid [5, 7]: 0.04 percentage of the amount of activity administered | Blood/ml [5, 8]: 0.086 percentage of the amount of ac | Kidneys [5, 8]: 0.38 percentage of the amount of activity administered | Liver [5, 8]: 82.7 percentage of the amount of activity administered | Lung [5, 8]: 0.43 percentage of the amount of activity administered | Remainder of body [5, 8]: 18.4 percentage of the amount of activity administered | Spleen [5, 8]: 1.10 percentage of the amount of activity administered | Thyroid [5, 8]: 0.05 percentage of the amount of activity administered | accumulation of activity in the kidneys, blood, femur and remainder of the body compared with phytate ([5]; all amounts of substance investigated): clearly lower than with phytate | suitability as diagnostic agent for visualization of RES-containing organs compared with 99mTc phytate ([5]; deduction from the animal experiments): unambiguously superior | tissue uptake at 0.5 h ([5]; (50 μg)): 0.052 %ID/g | tissue uptake at 0.5 h [5, 7]: 0.088 %ID/g | tissue uptake at 0.5 h [5, 8]: 0.089 %ID/g | Kidneys [6]: 0.067 percentage of the dose adminis | Liver [6]: 94.0 percentage of the dose adminis | Remainder of body [6]: 4.8 percentage of the dose adminis | Spleen [6]: 1.9 percentage of the dose adminis | Thyroid [6]: 0.034 percentage of the dose adminis | bladder + urine [6]: 0.023 percentage of the dose adminis | blood (1 ml) [6]: 0.083 percentage of the dose adminis | bone [6]: 0.7 percentage of the dose adminis | lungs [6]: 0.23 percentage of the dose adminis
